Series [1] deals with GHB binding sites i.e. CaMK2a. As to conditions: previously published; cited from earlier work.
A short description of series [2]: Mouse plasma assay (metabolic stability). As to conditions: rat plasma as printed. Format: in vitro ADME. How it is done:
(§1) Metabolic stability analysis was performed on a Bruker Avance Ultra High Performance Liquid Chromatography (UHPLC) (Bruker Daltonik, Bremen, Germany) equipped with a CTC-PAL-xt autosampler with cooled sample compartments (10 °C) and a column oven held at 40 °C. The UHPLC eluate was directed to a Bruker Evoq Elite triple quad-ropole MS equipped with a heated electrospray ionization source operated in positive ionization mode. Separation of 15 µL sample was obtained using a Phenomenex (Phenomenex, Torrance, CA, USA) Kinetex XB-C18 column (50 mm × 2.1 mm i.d., 1.7 µm particle size) equipped with a guard column. The analytes were separated using a solvent system consisting of water/acetonitrile (95:5, v/v) (eluent A) and water/acetonitrile (5:95, v/v) (eluent B); both acidified with 0.1% formic acid. The eluent flow rate was maintained at 0.4 mL/min with the following gradient elution profile: 0 min: 0% B; 5 min: 100% B; 6 min: 100% B, followed by three min equilibration at 0% B. Two ion transitions were monitored for all analytes and internal standard. […]
(§2) The metabolic stabilities of JON-11 and the prodrugs 1a, 8-12, 19 and 20 were determined in vitro in rat plasma and rat liver microsomes. […] The corresponding loss of prodrug compounds and formation of parent drug JON-11 was determined by UHPLC-MS.

Series [3] is classed as in vitro ADME, mouse. As to conditions: rat liver microsomes as printed. How it is done: as §1, §2
For orientation: Liver microsomes are a subcellular fraction often used to study metabolism.

Series [4] deals with T1, GHB high-affinity binding site/CaMK2a (Rattus norvegicus, UniProt P11275).
T1 construct: rat (Sprague-Dawley) cortical synaptic membranes (P2 synaptosomes) were prepared; from tissue; host or cells: rat (Sprague-Dawley) cortical synaptic membranes (P2 synaptosomes)
T1 sequence (P11275 whole entry): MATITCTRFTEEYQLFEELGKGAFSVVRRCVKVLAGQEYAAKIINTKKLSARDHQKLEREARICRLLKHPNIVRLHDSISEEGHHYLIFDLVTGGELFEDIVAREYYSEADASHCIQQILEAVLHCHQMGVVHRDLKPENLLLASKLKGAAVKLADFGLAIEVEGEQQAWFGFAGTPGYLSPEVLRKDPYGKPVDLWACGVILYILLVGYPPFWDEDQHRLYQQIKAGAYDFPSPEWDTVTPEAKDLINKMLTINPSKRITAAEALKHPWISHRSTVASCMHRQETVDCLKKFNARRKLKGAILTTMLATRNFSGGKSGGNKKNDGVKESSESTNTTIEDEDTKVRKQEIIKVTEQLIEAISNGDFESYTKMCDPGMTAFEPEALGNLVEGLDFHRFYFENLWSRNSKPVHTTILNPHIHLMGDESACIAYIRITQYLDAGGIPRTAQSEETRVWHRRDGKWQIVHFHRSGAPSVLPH
Nature of the series: Rat brain membrane [3H]NCS-382 binding assay. As to conditions: for Ki: 16 nM [3H]NCS-382, rat cortical synaptic membranes, pH 6.0, 0-4 °C. How it is done:
According to previously published protocols, rat (Sprague-Dawley) cortical synaptic membranes (P2 synaptosomes) were prepared and stored at -20 °C until the day of assay (Wellendorph et al., 2005). Membranes were then washed three times with binding buffer (50 mM potassium phosphate buffer pH 6.0). The binding protocol was performed in 96-well microplates. In brief, compounds were incubated with 16 nM [^3H]NCS-382 radioligand and membranes for 60 min at 0-4 °C, filtered through GF/C filter plates (PerkinElmer) using a 96-well harvester (Packard), rapidly washed three times with ice-cold binding buffer, and filter plates dried. CPM values were determined using liquid scintillation counting in a TopCount NXT Microplate Scintillation & Luminescence Counter (PerkinElmer). Curves were generated using non-linear regression (GraphPad Prism 7, GraphPad Prism Software, San Diego, CA, USA).
JON-11, related analogues, and pro-JON-11(10) were tested in the [^3H]NCS-382 binding assay (Wellendorph et al., 2005).

The nature of the next series: in vivo. Also on record: species or system mice. As to conditions: C57BL/6JRj, mouse, ip, male mice, dose 10 mg/kg i.p., 30 min, read-out: B/P ratio. How it is done:
To evaluate the ability of pro-JON-11 (10) and JON-11 to penetrate the blood-brain barrier, a brain-to-plasma distribution ratio (B/P ratio) was obtained. All subjects were male C57BL/6JRj mice (24-26 g, Janvier Labs, France) housed in groups of three-four with ad libitum access to food and water. The mice were maintained under diurnal conditions (12-h light/dark cycle with lights on at 7 AM) in a temperature (22±1 °C) and humidity-controlled room (50±10%). Ethical permission for the procedures used in this in vivo study was granted by the Danish Animal Experiments Inspectorate.
Compounds were dissolved in PEG-400 (Sigma) at 20% of the final required volume. The final volume was then made up by 10% (w/v) hydroxypropyl-beta-cyclodextrin (Sigma Aldrich) in sterile saline. The solution was sonicated for 5 min. The JON-11 solution was pH-adjusted to 7.4 with 0.2% 2M NaOH.
Both compounds were injected i.p. at a dose of 10 mg/kg (n=3 for each compound). […] After 30 min, the animals were sacrificed by decapitation, trunk blood was collected in EDTA-coated tubes and the brain was gently removed. Blood and tissues were temporarily stored on ice until plasma and brain homogenate preparation. Blood plasma was separated from cells by centrifugation for 10 min at 1,500 x g at 4 °C and plasma harvested. […]
Plasma and brain exposure of JON-11 and pro-JON-11 were evaluated in male mice. […]

For series [5], the target named is T2, LAT-1 (Homo sapiens, UniProt Q01650).
T2 construct: endogenous in cells; host or cells: HEK293T
T2 sequence (Q01650 whole entry): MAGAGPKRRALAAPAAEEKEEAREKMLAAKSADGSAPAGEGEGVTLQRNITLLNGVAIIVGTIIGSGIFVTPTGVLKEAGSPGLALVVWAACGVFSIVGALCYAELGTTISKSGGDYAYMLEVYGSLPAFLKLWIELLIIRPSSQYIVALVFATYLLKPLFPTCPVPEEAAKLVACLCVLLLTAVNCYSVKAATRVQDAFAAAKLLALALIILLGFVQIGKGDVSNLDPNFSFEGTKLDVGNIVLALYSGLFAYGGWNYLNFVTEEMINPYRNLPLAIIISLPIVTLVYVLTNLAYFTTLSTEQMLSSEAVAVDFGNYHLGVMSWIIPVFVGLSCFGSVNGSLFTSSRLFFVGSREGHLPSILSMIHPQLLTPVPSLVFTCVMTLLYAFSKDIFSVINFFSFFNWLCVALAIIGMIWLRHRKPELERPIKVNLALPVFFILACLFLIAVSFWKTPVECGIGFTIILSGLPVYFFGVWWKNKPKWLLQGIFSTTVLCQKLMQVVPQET
T2 sequence (P08195 102-630 partner): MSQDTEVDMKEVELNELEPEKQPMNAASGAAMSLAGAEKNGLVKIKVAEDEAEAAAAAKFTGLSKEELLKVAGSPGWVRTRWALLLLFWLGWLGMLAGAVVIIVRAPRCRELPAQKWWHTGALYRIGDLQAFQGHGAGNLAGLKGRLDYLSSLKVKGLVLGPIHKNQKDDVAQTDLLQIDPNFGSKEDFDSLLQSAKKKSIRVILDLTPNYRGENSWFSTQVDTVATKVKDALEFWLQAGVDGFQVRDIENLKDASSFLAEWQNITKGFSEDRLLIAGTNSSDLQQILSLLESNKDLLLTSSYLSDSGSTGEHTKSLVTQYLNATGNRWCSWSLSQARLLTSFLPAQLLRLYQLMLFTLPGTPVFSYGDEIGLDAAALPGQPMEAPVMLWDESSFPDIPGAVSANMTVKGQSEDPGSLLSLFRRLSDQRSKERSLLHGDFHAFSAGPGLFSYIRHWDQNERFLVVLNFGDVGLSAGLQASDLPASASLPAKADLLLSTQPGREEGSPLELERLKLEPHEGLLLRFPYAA
Nature of the series: LAT-1 [3H]leucine uptake in HEK293T cells. Format: cell-based. As to conditions: HEK293T cells endogenously expressing LAT-1. An excerpt:
(§3) To test selected prodrugs for substrate activity at LAT-1, we characterised the uptake and efflux of [^3H]leucine in the presence of compounds. For this purpose we used HEK293T cells endogenously expressing a functionally competent LAT-1, and performed assays according to Chien et al., 2018 to measure A) uptake and B) relative exchange efflux rate (L-leucine as control).

Series [6] is classed as in vitro ADME, mouse. As to conditions: plasma and liver microsomes; converted to parent JON-11 instantly. The method, then:
Metabolic stability analysis was performed on a Bruker Avance Ultra High Performance Liquid Chromatography (UHPLC) (Bruker Daltonik, Bremen, Germany) equipped with a CTC-PAL-xt autosampler with cooled sample compartments (10 °C) and a column oven held at 40 °C. The UHPLC eluate was directed to a Bruker Evoq Elite triple quad-ropole MS equipped with a heated electrospray ionization source operated in positive ionization mode. Separation of 15 µL sample was obtained using a Phenomenex (Phenomenex, Torrance, CA, USA) Kinetex XB-C18 column (50 mm × 2.1 mm i.d., 1.7 µm particle size) equipped with a guard column. The analytes were separated using a solvent system consisting of water/acetonitrile (95:5, v/v) (eluent A) and water/acetonitrile (5:95, v/v) (eluent B); both acidified with 0.1% formic acid. The eluent flow rate was maintained at 0.4 mL/min with the following gradient elution profile: 0 min: 0% B; 5 min: 100% B; 6 min: 100% B, followed by three min equilibration at 0% B. Two ion transitions were monitored for all analytes and internal standard.
The mouse liver microsome assay was performed by transferring 25 µL of a 20 µM solution of the test compound (0.5% DMSO), dissolved in potassium phosphate monobasic buffer (pH 7.4) containing 3 mM MgCl2, to 9 wells in a microtiter plate. To each well, […] of a 0.5 mg/mL mouse liver (Sigma Aldrich) in buffer was added, and the microtiter plate were pre-incubated for 5 min at 37 °C in a plate shaker at 600 rpm. After pre-incubation, 50 µL 37 °C NADPH regenerating system, consisting of 2 mM NADP+, 10mM glucose-6-phosphate, and 2 U/mL glucose-6-phosphate dehydrogenase dissolved in buffer, was added to start the assay. In triplicates, immediately after adding the NADPH solution, 75 µL was transferred to an Eppendorf tube, containing […] ice-cold acetonitrile with 400 ng/mL internal standard (7). Similarly, samples were prepared after 30 min and 60 min incubation at 37 °C. The samples were vortexed for 30 seconds and centrifuged at 16,000 × g for 10 minutes before analyzing the supernatant. The individual analyte responses were normalized to the internal standard. Diazepam was used as positive control.
The mouse […] assay was performed by transferring 75 µL of a 10 µM solution of the test compound (0.5% DMSO), dissolved in PBS buffer (pH 7.4), to 9 wells in a microtiter plate. To each well, 75 µL mouse plasma, harvested from in-house mice into K2-EDTA tubes and centrifuged at 1,600 × g, was added. […]
as §2

Series [7] has as its target T2, LAT-1. Put plainly: LAT-1 relative exchange efflux of [3H]leucine in HEK293T cells. Format: cell-based. The settings on record: HEK293T cells endogenously expressing LAT-1.
Text: as §3

“Also recorded” adds a separate entry of the source.

Usually half-life stands for how long it takes for the measured level to halve. As a reminder, the Ki is the dissociation constant of the complex between target and ligand, obtained from inhibition or displacement.

As to `O=C(O)C1=CC(O)CC1` (stereo not shown) [HOCPCA, 3-hydroxycyclopent-1-enecarboxylic acid], the “affinity relative to GHB” value in series [1] is 27 times.
Compound `CC(C)(C)OC(=O)Cc1cn2nc(-c3ccc(Cl)cc3)ccc2n1` [compound 10, tert.Butyl 2-(6-(4-chlorophenyl)imidazo[1,2-b]pyridazin-2-yl)acetate] had a half-life at 5 µM in series [2] (pH 7.4) of around 1 h. Further, the stability in plasma entry in series [2] is reported as “fair stability”. Besides, in series [3], the “stability in liver microsomes” value was “high stability”. In addition, the “displacement of radioligand binding” value in series [4] ([3H]NCS-382, concentrations up to 10 µM) was “failed to displace radioligand binding”. For the same compound, in “in vivo”, the Kp at 30 min is 2.24.
As for `N[C@@H](Cc1ccc(NC(=O)Cc2cn3nc(-c4ccc(Cl)cc4)ccc3n2)cc1)C(=O)O` [compound 12, (S)-2-amino-3-(4-(2-(6-(4-chlorophenyl)imidazo[1,2-b]pyridazin-2-yl)acetamido)phenyl)propanoic acid], the “competition with [3H]leucine uptake at LAT-1” value on LAT-1 [5] is recorded as “not”.
In the case of `O=C(O)CCC(O)c1ccc(OCc2ccccc2)cc1` (stereo not shown) [BnOPh-GHB], the “affinity relative to GHB” value in series [1] is on record as 39 times.
In series [4], `COc1ccc(-c2ccc3nc(CC(=O)O)cn3n2)cc1` [compound 6, 2-(6-(4-Methoxyphenyl)imidazo[1,2-b]pyridazin-2-yl)acetic acid] returned a Ki of 830 nM.
In the case of `O=C(O)Cc1cn2nc(-c3cccc(Cl)c3)ccc2n1` [compound 2, 2-(6-(3-Chlorophenyl)imidazo[1,2-b]pyridazin-2-yl)acetic acid], the affinity in series [4] corresponds to a Ki of 230 nM.
`O=C(O)Cc1cn2nc(-c3ccc(Cl)c(Cl)c3)ccc2n1` [compound 7, 2-(6-(3,4-Dichlorophenyl)imidazo[1,2-b]pyridazin-2-yl)acetic acid] displayed a Ki in series [4] of 190 nM.
Turning to `CCOC(=O)Cc1cn2nc(-c3ccc(Cl)cc3)ccc2n1` [1a, ethyl 2-(6-(4-chlorophenyl)imidazo[1,2-b]pyridazin-2-yl)acetate], the “chemical/metabolic stability of prodrug” value in series [6] was “highly chemical/metabolic unstable”.
With `CC(=O)OCOC(=O)Cc1cn2nc(-c3ccc(Cl)cc3)ccc2n1` [compound 8, Acetoxymethyl 2-(6-(4-chlorophenyl)imidazo[1,2-b]pyridazin-2-yl)acetate], the “chemical/metabolic stability of prodrug” value in series [6] is “highly chemical/metabolic unstable”.
Compound `O=C(O)Cc1cn2nc(-c3ccc(OCc4ccccc4)cc3)ccc2n1` [compound 4, 2-(6-(4-(benzyloxy)phenyl)imidazo[1,2-b]pyridazin-2-yl)acetic acid] yielded a Ki in series [4] of 2200 nM.
Same read-out and setting: as for `COc1cccc(-c2ccc3nc(CC(=O)O)cn3n2)c1` [compound 5, 2-(6-(3-Methoxyphenyl)imidazo[1,2-b]pyridazin-2-yl)acetic acid], the figure is 440 nM.
Turning to `CC(C)(C)C(=O)OCOC(=O)Cc1cn2nc(-c3ccc(Cl)cc3)ccc2n1` [compound 9, (2-(6-(4-Chlorophenyl)imidazo[1,2-b]pyridazin-2-yl)acetoxy)methyl pivalate], in series [6], the “chemical/metabolic stability of prodrug” value is “highly chemical/metabolic unstable”.
For the compound `N[C@@H](Cc1cccc(NC(=O)Cc2cn3nc(-c4ccc(Cl)cc4)ccc3n2)c1)C(=O)O` [compound 11, (S)-2-amino-3-(3-(2-(6-(4-chlorophenyl)imidazo[1,2-b]pyridazin-2-yl)acetamido)phenyl)propanoic acid], the “exchange for [3H]leucine (relative exchange efflux)” value on LAT-1 [7] is on record as “cannot be exchanged”. In addition, on LAT-1 [5], the “competition with [3H]leucine uptake at LAT-1” value is given as “LAT1 inhibitor; also recorded: competes”.
As for `O=C(O)Cc1cn2nc(-c3cccc(OCc4ccccc4)c3)ccc2n1` [compound 3], the Ki in series [4] is 510 nM.

Source of the values: patent publication EP3952873B1 (priority 2019, dated 2020).
